{
  "source": "patent US7456220B2",
  "about": "“Immunodulatory compositions and methods of use thereof” (priority 1999, dated 2008)",
  "tested_on": "gentamicin resistant Escherichia coli",
  "test": "Rat sepsis model, mortality vs. saline control (Example 15)",
  "type": "in vivo, Wistar rats",
  "settings": "Gentamicin 2 mg, gel 2 ml I.M., 24 hours before challenge, Group D mixture, timing not given",
  "experimental": "The model system utilizes Wistar rats surgically implanted with an inoculum of intestinal contents from other rats. The inoculum is prepared in a manner which simulates the microbiologic parameters of the human colon. This is accomplished by placing rats on a diet of lean ground beef for two weeks, and then harvesting, homogenizing and freezing aliquots of prepared intestinal contents for subsequent use. The clinical end points for evaluation in this model are mortality, while microbiologic end points include blood and peritoneal cultures. The general experimental design and methods are as follows.\nMale, Wistar, virus antibody free (VAF) rats (Charles River Laboratories, Wilmington, Mass.), weighing 175-200 grams, are utilized for all experiments. All animals are housed, five per cage, within a VAF facility, and given food and water ad libitum, except for those animals used for preparation of the meat-fed cecal inoculum (see below). Animal experiments are carried out according to the guidelines of the Harvard Medical Area Standing Committee on Animals, in facilities accredited by the American Association for the Accreditation of Laboratory Animal Care.\nThe innoculum for this study is prepared as described in A. Onderdonk et al., Experimental intra-abdominal abscesses in rats; quantitative bacteriology of infected animals. Infection and Immunity, 10:1256-9 (1974); and A. Onderdonk et al., Experimental intra-abdominal abscesses in rats: development of animal model. Infection and Immunity, 10:1256-1259 (1974). Briefly, cecal contents from meat-fed rats are combined with peptone-yeast-glucose broth to form a slurry. This slurry is filtered through gauze to remove large particulate material, aliquoted and frozen at −80° C. until used. Preliminary testing of this inoculum is performed to determine the proper dilution of the inoculum to yield a mortality of 60%-70% in an untreated group.\nAnimals are anesthetized with Nembutal (50 mg/Kg), and prepared for surgical implantation of the inoculum by shaving the abdomen and applying an iodine solution. A 3-4 cm midline incision is made through the skin and anterior abdominal wall, and a gelatin capsule containing 0.5 mL of the inoculum is inserted into the pelvic region. The incision is closed with one 3-0 suture, and the animals are observed four times per day for the first 48 hours, and every eight hours thereafter. Visibly moribund animals are humanely sacrificed with CO2.\nGroups of twenty animals each are implanted with the inoculum described above. For each experiment, a control group of sham-treated animals is employed. For experiments in which quantitative blood and peritoneal cultures are obtained, sufficient additional animals are implanted to allow for such cultures, but mortality in these groups is not included in the clinical outcome calculations, due to the additional manipulation of the animals. Surviving animals from each group are sacrificed after seven days.\nA comparison of groups with regard to mortality is made by chi-square analysis as supplied on commercially available statistical software (Instat, GraphPad Software, San Diego, Calif.). A comparison group mean bacterial count is made using Student's T test.\nAnimals were divided into Groups A, B, C and D, with each Group containing 15 animals. All groups were challenged with 2.629 ml gentamicin resistant Escherichia coli, 0.32 ml Dextran Sulfate, and 29.051 ml Peptone Yeast Glucose. Group A was treated 2 hours after challenge, while Groups B and C were treated 24 hours before challenge. Group A was treated with 2 ml saline I.M.; Group B was treated with 2 mg Gentamicin; Group C was treated with 2 ml HA/CMC/EDC gel I.M.; and Group D was treated with a mixture of Gentamicin and HA/CMC/EDC gel.\nThe animals were held for 48 hours, and assessed for mortality vs. the saline control.",
  "data": [
    {"substance": "Gentamicin", "values": [
      {"measurement": "% mortality", "setting": "24 hr", "value": 23.1, "unit": "%"},
      {"measurement": "mortalities (M)", "setting": "24 hr", "value": 3},
      {"measurement": "surviving animals (A)", "setting": "24 hr", "value": 10},
      {"measurement": "% mortality", "setting": "48 hr", "value": 38.5, "unit": "%"},
      {"measurement": "mortalities (M)", "setting": "48 hr", "value": 2},
      {"measurement": "surviving animals (A)", "setting": "48 hr", "value": 8},
      {"measurement": "% mortality", "setting": "Total", "value": 38.5, "unit": "%"},
      {"measurement": "mortalities (M)", "setting": "Total", "value": 5},
      {"measurement": "surviving animals (A)", "setting": "Total", "value": 8}
    ]}
  ]
}
